Reference: patent US6492426B1, “Use of 1-aminoindan derivatives for treatment of mania in bipolar mood disorder” (priority 1999, dated 2002)
“And” between values parts separate entries of the source, which are not always exact repeats. Identical values can stand only once.

System: amphetamine-induced hyperactivity in rats
Experiment: amphetamine-induced hyperactivity model of mania in rats (automated activity monitors)
Type: in vivo, Sprague Dawley rats
Conditions: for Effect on activity levels of rats (summary): amphetamine-treated rats; for Anti-manic potential from the tested model (conclusion): based on the tested model and doses; for Locomotor activity, 20 min, mean / Vertical activity, 20 min, mean / Locomotor activity, 30 min, mean / Vertical activity, 30 min, mean / Locomotor activity, 10 min, mean / Vertical activity, 10 min, mean / Locomotor activity, 20-10 min, mean / Vertical activity, 20-10 min, mean / Locomotor activity, 30-20 min, mean / Vertical activity, 30-20 min, mean: group mean n=10; for Locomotor activity, 20 min, mean / Vertical activity, 20 min, mean / Locomotor activity, 30 min, mean / Vertical activity, 30 min, mean / Locomotor activity, 10 min, mean / Vertical activity, 10 min, mean / Locomotor activity, 20-10 min, mean / Vertical activity, 20-10 min, mean / Locomotor activity, 30-20 min, mean / Vertical activity, 30-20 min, mean / Locomotor activity, 10 min / Locomotor activity, 20 min / Vertical activity, 20 min / Locomotor activity, 30 min / Vertical activity, 30 min / Vertical activity, 10 min / Locomotor activity, 20-10 min / Vertical activity, 20-10 min / Locomotor activity, 30-20 min / Vertical activity, 30-20 min: 75 mg/kg IP twice, amphetamine 0.5 mg/kg s.c.; for Locomotor activity, 20 min, mean / Vertical activity, 20 min, mean / Locomotor activity, 20 min / Vertical activity, 20 min: cumulative to 20 min; for Locomotor activity, 30 min, mean / Vertical activity, 30 min, mean / Locomotor activity, 30 min / Vertical activity, 30 min: cumulative to 30 min; for Locomotor activity, 10 min, mean / Vertical activity, 10 min, mean / Locomotor activity, 10 min / Vertical activity, 10 min: first 10 min; for Locomotor activity, 20-10 min, mean / Vertical activity, 20-10 min, mean / Locomotor activity, 20-10 min / Vertical activity, 20-10 min: second 10 min interval; for Locomotor activity, 30-20 min, mean / Vertical activity, 30-20 min, mean / Locomotor activity, 30-20 min / Vertical activity, 30-20 min: third 10 min interval; for Locomotor activity, 10 min / Locomotor activity, 20 min / Vertical activity, 20 min / Locomotor activity, 30 min / Vertical activity, 30 min / Vertical activity, 10 min / Locomotor activity, 20-10 min / Vertical activity, 20-10 min / Locomotor activity, 30-20 min / Vertical activity, 30-20 min: individual rat; for Locomotor activity, 20-10 min / Vertical activity, 20-10 min / Locomotor activity, 30-20 min / Vertical activity, 30-20 min: non cumulative
Procedure: Evaluation of possible anti-bipolar effects of compounds 1 to 4 was effected by an amphetamine-induced hyperactivity model of mania in rats. Each of the compounds was examined in a separate experiment and compared with a control group, treated with the same dose of amphetamine.
Twenty Sprague Dawley rats, weighing 200-250 g served for each of the four (4) experiments. Rats were housed in a colony room with constant temperature (22° C.), 12 h light/dark cycle and free access to food and water. Each experiment consisted of two groups (n=10 per group), one group was treated with the compound (1 to 4) and the other with vehicle solution. In experiments 1-4, the drugs were administered intraperitoneally (IP). All experimental procedures were conducted during the light phase of the light/dark cycle.
Amphetamine (0.5 mg/kg, sub-cutaneous (s.c.), diluted in de-ionized water) was injected into all rats (both groups of each experiment) immediately prior to behavioral testing. In experiments 1 to 4, compounds (R)-N-acetyl aminoindan (1); (S)-N-indanyl glycinamide HCl (2); (rac)-N-(2-aminoacetyl)-1-aminoindan HCl (3); and (S)-N-formyl aminoindan (4) were injected twice intraperitoneally (IP) at a dose of 75 mg/kg, 19 h and 3 h prior to behavioral testing in experiments. All compounds were suspended in a 5% methyl cellulose solution. The vehicle solution was administered to the control animals.
Immediately after amphetamine injection, rats were placed in automated activity monitors and their activity levels were scored every 10 minutes in the 30 minute time span for experiments 1 to 4. Activity scores included separate measurements of horizontal (locomotion) and of vertical (rearing) activity.
Repeated ANOVA measurements were used to examine the effects of compounds 1 to 4 on locomotor and on vertical activity. One factor measured the treatment of the rats using compounds 1 to 4 or the control vehicle; the repeated measure factor was time (three 10 minute intervals). Post hoc LSD (least significant difference) tests were used to determine whether significant differences occurred in different time periods, where relevant.

[1] = 75 mg/kg IP, 19 h and 3 h before testing, result in words

Compound: Cl.NCC(=O)NC1CCc2ccccc21 (racemic) [Compound 3, (rac)-N-(2-aminoacetyl)-1-aminoindan HCl]
- Effect on amphetamine-induced locomotor activity versus control (ANOVA) [1]: significantly reduced locomotor activity
- Effect on amphetamine-induced vertical activity versus control (ANOVA) [1]: similar, albeit non-significant, effect
- Effect on activity levels of rats (summary) (75 mg/kg IP, result in words): reduced the activity levels
- Anti-manic potential from the tested model (conclusion) (result in words): show anti-manic potential
- Locomotor activity, 20 min, mean: 1037 counts
- Vertical activity, 20 min, mean: 32 counts
- Locomotor activity, 30 min, mean: 1397.4 counts
- Vertical activity, 30 min, mean: 48.3 counts
- Locomotor activity, 10 min, mean: 494.4 counts
- Vertical activity, 10 min, mean: 23.1 counts
- Locomotor activity, 20-10 min, mean: 542.6 counts
- Vertical activity, 20-10 min, mean: 8.9 counts
- Locomotor activity, 30-20 min, mean: 360.4 counts
- Vertical activity, 30-20 min, mean: 16.3 counts
- Locomotor activity, 10 min (19 h and 3 h before testing, HCl): 379 counts and 525 counts and 338 counts and 553 counts and 449 counts and 349 counts and 584 counts and 614 counts and 537 counts and 616 counts
- Locomotor activity, 20 min (HCl): 1214 counts and 1196 counts and 621 counts and 1303 counts and 862 counts and 663 counts and 1104 counts and 1349 counts and 1095 counts and 963 counts
- Vertical activity, 20 min (HCl): 0 counts and 33 counts and 11 counts and 91 counts and 26 counts and 5 counts and 66 counts (2×) and 1 counts and 21 counts
- Locomotor activity, 30 min (HCl): 1678 counts and 1507 counts and 691 counts and 1619 counts and 1112 counts and 917 counts and 1576 counts and 1810 counts and 1758 counts and 1306 counts
- Vertical activity, 30 min (HCl): 1 counts and 35 counts (2×) and 11 counts and 101 counts and 5 counts and 75 counts and 100 counts and 38 counts and 82 counts
- Vertical activity, 10 min (HCl): 0 counts and 17 counts and 7 counts and 27 counts and 11 counts and 5 counts and 36 counts and 58 counts and 16 counts and 54 counts
- Locomotor activity, 20-10 min (HCl): 835 counts and 671 counts and 283 counts and 750 counts and 413 counts and 314 counts and 520 counts and 735 counts and 558 counts and 347 counts
- Vertical activity, 20-10 min (HCl): 0 counts (2×) and 16 counts and 4 counts and 64 counts and 15 counts and 30 counts and −57 counts and 5 counts and 12 counts
- Locomotor activity, 30-20 min (HCl): 464 counts and 311 counts and 70 counts and 316 counts and 250 counts and 254 counts and 472 counts and 461 counts and 663 counts and 343 counts
- Vertical activity, 30-20 min (HCl): 1 counts and 2 counts and 0 counts (2×) and 10 counts and 9 counts (2×) and 99 counts and 17 counts and 16 counts

Compound: O=CN[C@H]1CCc2ccccc21 [Compound 4, (S)-N-formyl aminoindan]
- Effect on amphetamine-induced locomotor activity versus control (ANOVA) [1]: significantly reduced amphetamine-induced locomotor activity
- Effect on activity levels of rats (summary) (75 mg/kg IP, result in words): reduced the activity levels
- Anti-manic potential from the tested model (conclusion) (result in words): show anti-manic potential
- Locomotor activity, 20 min, mean: 1035 counts
- Vertical activity, 20 min, mean: 24 counts
- Locomotor activity, 30 min, mean: 1523 counts
- Vertical activity, 30 min, mean: 35 counts
- Locomotor activity, 10 min, mean: 553 counts
- Vertical activity, 10 min, mean: 17 counts
- Locomotor activity, 20-10 min, mean: 482 counts
- Vertical activity, 20-10 min, mean: 7 counts
- Locomotor activity, 30-20 min, mean: 488 counts
- Vertical activity, 30-20 min, mean: 11 counts
- Locomotor activity, 10 min (19 h and 3 h before testing): 453 counts and 589 counts and 482 counts and 508 counts and 596 counts and 558 counts and 481 counts and 551 counts and 691 counts and 619 counts
- Locomotor activity, 20 min: 919 counts and 1099 counts and 896 counts and 840 counts and 1179 counts and 1113 counts and 923 counts and 988 counts and 1306 counts and 1088 counts
- Vertical activity, 20 min: 10 counts and 40 counts and 21 counts and 7 counts and 30 counts and 17 counts and 27 counts and 4 counts and 37 counts and 43 counts
- Locomotor activity, 30 min: 1371 counts and 1632 counts and 1253 counts and 1031 counts and 1789 counts and 1730 counts and 1422 counts (2×) and 2061 counts and 1519 counts
- Vertical activity, 30 min: 15 counts and 55 counts and 26 counts and 7 counts and 30 counts and 31 counts and 38 counts and 14 counts and 83 counts and 46 counts
- Vertical activity, 10 min: 9 counts and 30 counts (2×) and 13 counts and 7 counts and 12 counts (2×) and 21 counts and 3 counts and 34 counts
- Locomotor activity, 20-10 min: 466 counts and 510 counts and 414 counts and 332 counts and 583 counts and 555 counts and 442 counts and 437 counts and 615 counts and 469 counts
- Vertical activity, 20-10 min: 1 counts (2×) and 10 counts and 8 counts and 0 counts and 18 counts and 5 counts and 6 counts and 3 counts and 13 counts
- Locomotor activity, 30-20 min: 452 counts and 533 counts and 357 counts and 191 counts and 610 counts and 617 counts and 499 counts and 434 counts and 755 counts and 431 counts
- Vertical activity, 30-20 min: 5 counts (2×) and 15 counts and 0 counts (2×) and 14 counts and 11 counts and 10 counts and 46 counts and 3 counts

Compound: CC(=O)N[C@@H]1CCc2ccccc21 [Compound 1, (R)-N-acetyl aminoindan]
- Effect on amphetamine-induced locomotor activity versus control (ANOVA) [1]: significantly reduced locomotion
- Effect on activity levels of rats (summary) (75 mg/kg IP, result in words): reduced the activity levels
- Anti-manic potential from the tested model (conclusion) (result in words): show anti-manic potential
- Locomotor activity, 20 min, mean: 945.8 counts
- Vertical activity, 20 min, mean: 22.5 counts
- Locomotor activity, 30 min, mean: 1395.6 counts
- Vertical activity, 30 min, mean: 33.8 counts
- Locomotor activity, 10 min, mean: 545.3 counts
- Vertical activity, 10 min, mean: 14.2 counts
- Locomotor activity, 20-10 min, mean: 400.5 counts
- Vertical activity, 20-10 min, mean: 8.3 counts
- Locomotor activity, 30-20 min, mean: 449.8 counts
- Vertical activity, 30-20 min, mean: 11.3 counts
- Locomotor activity, 10 min (19 h and 3 h before testing): 600 counts and 448 counts and 718 counts and 740 counts and 570 counts and 426 counts and 395 counts and 462 counts and 681 counts and 413 counts
- Locomotor activity, 20 min: 930 counts and 677 counts and 1125 counts and 1026 counts and 1147 counts and 802 counts and 800 counts and 794 counts and 1361 counts and 796 counts
- Vertical activity, 20 min: 34 counts and 12 counts (2×) and 18 counts and 29 counts and 37 counts and 28 counts and 11 counts and 39 counts and 5 counts
- Locomotor activity, 30 min: 1436 counts and 1027 counts and 1653 counts and 1317 counts and 1776 counts and 1230 counts and 1053 counts and 1150 counts and 2064 counts and 1250 counts
- Vertical activity, 30 min: 62 counts and 18 counts and 20 counts and 31 counts and 53 counts and 38 counts and 12 counts and 21 counts and 76 counts and 7 counts
- Vertical activity, 10 min: 27 counts and 9 counts and 16 counts (2×) and 29 counts and 20 counts and 5 counts and 10 counts and 6 counts and 4 counts
- Locomotor activity, 20-10 min: 330 counts and 229 counts and 407 counts and 286 counts and 577 counts and 376 counts and 405 counts and 332 counts and 680 counts and 383 counts
- Vertical activity, 20-10 min: 7 counts (2×) and 3 counts and 2 counts and 0 counts and 17 counts and 12 counts and 1 counts (2×) and 33 counts
- Locomotor activity, 30-20 min: 506 counts and 350 counts and 528 counts and 291 counts and 629 counts and 428 counts and 253 counts and 356 counts and 703 counts and 454 counts
- Vertical activity, 30-20 min: 28 counts and 6 counts and 2 counts (3×) and 16 counts and 10 counts (2×) and 0 counts and 37 counts
